Experimental data reported in patent US9943560B2, “Medical compositions containing liquorice extracts with synergistic effect” (priority 2010, dated 2018).
Values after ≈ are worked out from the molar mass of the structure shown. Values joined by “and” are separate entries in the source; they are usually repeats but may differ in a detail not shown here. Identical values can stand only once.

Assays:
MCF-7 cells = assay: In vitro killing of MCF-7 cells (MTS, 72 h); type: cell-based, human; conditions: MCF-7, 72 h
Procedure: MCF-7 cells i.e. human breast cancer cells, which are bought from American ATCC, is a kind of adherent cells.
90% 1640 medium+10% fetal calf serum+30mmol/L Hepes+6 μg/ml insulin.
Its culture conditions and experimental procedures are all the same with that of the above method 1.

SGC-7901 cells = assay: In vitro killing of SGC-7901 cells (MTS, 72 h); type: cell-based, human; conditions: SGC-7901, 72 h
Procedure: SGC-7901 cells i.e. human gastric cancer cells which are bought from Cell Bank of Chinese Academy of Sciences/Shanghai Institute of Life Sciences Cell Resource Center of Chinese Academy of Sciences are adherent cells.
(§1) 90% 1640 culture solution plus 10% newborn calf serum (NCS), 100 ml in total, and then add lml miscible liquids containing 1% penicillin and 1% streptomycin.
Cultivate it in an incubator of 37° C. with CO2 of 5 percent. The cells will passage once every 3 days, and carry out the experiment when the cells enter their logarithmic growth period after two or three times of passage.
3. Experiment on In Vitro Killing of MCF-7 Cell Source

Colon38 cells = assay: In vitro killing of Colon38 cells (MTS, 72 h); type: cell-based, murine; conditions: Colon38, 72 h
Procedure: 1. Experimental Sources of In Vitro Killing Colon38 Cells
Colon38 cells i.e. murine colon carcinoma cells, which was gifted from Dept. of Pharmacology, Yale Medical School and are a kind of adherent cells.
as §1
Cultivate it in an incubator of 37° C. with 5% CO2. The cells will passage every 3 days, and carry out the experiment when the cells enter their logarithmic growth period after two or three times of passage.
2. Experiment on In Vitro Killing of SGC-7901 Cell Source: […]

PC-3 cells = assay: In vitro killing of PC-3 cells (MTS, 72 h); type: cell-based; conditions: PC-3, 72 h
Excerpt: 4. Experiment on In Vitro Killing of PC-3 Cell
PC-3 cells i.e. prostate cancer cells, which are bought from American ATCC, is a kind of adherent cells.
Its medium, culture conditions and experimental procedures are all the same with that of the above method 1.

[1] = system: colon cancer cell strain colon38 transplanted tumor; assay: Anti-tumor effect on colon38 transplanted tumor in mice; type: in vivo; conditions: for Death number: dead animals of 10 per group, represents side effects; for Death number / Average weight of tumor / Tumor inhibiting rate: dose as in Table VI; for Average weight of tumor: mice, once a week, four times; for Average weight of tumor / Tumor inhibiting rate: after four weeks; for Tumor inhibiting rate: vs CK group
Excerpt: Based on the method described in Pharmacology Research Methodology of Chinese Medicine (Chinese TCM Publishing House), test the anti-tumor effects of Chalcone A, G007, AG007-16 etc prepared in Embodiment 1, chemotherapy drugs (5-fluorouracil) and HBD09 on animal model of human cancer heterogeneity transplanted tumor. 5-fluorouracil (short for fu) is a broad-spectrum anti-tumor drug and mainly used to cure digestive tract tumor; the common adverse reactions are sicchasia, anorexia or vomiting, abdominal discomfort or diarrhea.
The dose given is as shown in Table VI; intragastric administration/ or injection administration is given once a week and four times in total.

[2] = system: postprandial blood glucose of Type 2 diabetics; assay: Clinical observation: postprandial blood glucose control in high-blood-glucose patients; type: in vivo, human
Excerpt: The postprandial blood glucose of Type 2 diabetics not sensitive to insulin is an important index of abnormal glucose metabolism and can be used to test the effect of drugs in reducing blood glucose.

Colon 38 = assay: Drug combination on inhibiting tumor cells, Combination Index (Chou-Talalay), Colon 38; type: cell-based, murine; conditions: partner drugs as named in the sentence (G007, I3C, DIM, Cis-platinum)
Excerpt: According to the cells and experiment methods used in Embodiment 2, differences are incurred from that dose concentration is confirmed by the following methods: when two drugs are combined, the concentration of one drug is chosen to be approximate to but smaller than IC50 while the concentration of other drugs is chosen to be in gradient dilution, to perform a series of experiments. When it is experimented that 50% tumor cells are inhibited, then the concentration of all drugs used at that moment is recorded as their IC50 value, and the CI value of the two drugs can be calculated with the formula in the above document.

SMILES | IC50 (MCF-7 cells) | IC50 (SGC-7901 cells) | IC50 (Colon38 cells) | IC50 (PC-3 cells) | IC80 (PC-3 cells) | Death number [1] | Average weight of tumor [1] | Tumor inhibiting rate [1] | IC80 (MCF-7 cells) | IC80 (SGC-7901 cells) | IC80 (Colon38 cells) | ratio of glucose reduction ([2]; average after-meal glucose with vs without drug intake) | Average blood glucose, drug intake, after meal ([2]; average of three patients, two hours after meal) | effect on controlling postprandial blood glucose ([2]; high-blood-glucose patients, compared with soybean) | Blood glucose, drug intake, before meal ([2]; individual patient, oral dose before meal) | Blood glucose, drug intake, after meal ([2]; individual patient, two hours after 300 g boiled corn, oral dose before meal) | anti-tumor effect and side effects in the animal model ([1]; alone or in combination with 5-fluorouracil) | synergistic effects in combination (Colon 38)
N.N.[Cl][Pt][Cl] [Cis-platinum] | 3.92 µg/mL | 5.4 µg/mL | 3.92 µg/mL |  |  |  |  |  |  |  |  |  |  |  |  |  |  | 
c1ccc2c(Cc3c[nH]c4ccccc34)c[nH]c2c1 [HBD09, bis-indolymethane] | 15.6 µg/mL (≈ 63.3 µM) | 18.2 µg/mL (≈ 73.9 µM) | 18.59 µg/mL (≈ 75.5 µM) | 13.8 µg/mL (≈ 56 µM) | 23.9 µg/mL (≈ 97 µM) | 2 | 2.6 ± 0.15 g | 15% | 31.2 µg/mL (≈ 127 µM) | 51.24 µg/mL (≈ 208 µM) | 48.51 µg/mL (≈ 197 µM) |  |  |  |  |  |  | 
O=c1[nH]cc(F)c(=O)[nH]1 [CK1(fu), 5-fluorouracil] |  |  |  |  |  | 6 | 1.74 ± 0.11 g | 43% |  |  |  |  |  |  |  |  |  | 
C=CC(C)(C)c1cc(/C=C/C(=O)c2ccc(O)cc2)c(OC)cc1O [Chalcone A] | 9.1 µg/mL (≈ 26.9 µM) | 9.7 µg/mL (≈ 28.7 µM) | 9.1 µg/mL (≈ 26.9 µM) | 7.8 µg/mL (≈ 23 µM) | 13.3 µg/mL (≈ 39.3 µM) | 0 | 2.36 ± 0.13 g | 23% | 21.3 µg/mL (≈ 62.9 µM) | 29.70 µg/mL (≈ 87.8 µM) | 24.77 µg/mL (≈ 73.2 µM) | 13.6% | 11.4 mM/L | significant effects | 7.9 mM/L and 8.6 mM/L and 8.5 mM/L | 10.6 mM/L and 12.0 mM/L and 11.6 mM/L | reduce the side effects brought by 5-fluorouracil dose | synergistic effects
